Results published in patent publication US20060074109A1, “Use of inhibitors of 24-hydroxylase in the treatment of cancer” (Sapphire Therapeutics, Inc., priority 2004, published 2006).

Legend:
OVCAR-3 cells = experiment: Cell growth assay, crystal violet, 11 days; type: cell-based, human; settings: for effect on growth inhibition: Experiment V
Procedure: The human ovarian adenocarcinoma cell line, OVCAR-3 (ATCC, Manassas, Va.) was maintained, as recommended by the supplier, in RPMI 1640 medium (Sigma Aldrich, St. Louis, Mo.) supplemented with 10% FBS, 10 μg/ml insulin, 0.25% glucose and antibiotics (100 IU/ml penicillin, 100 μg/ml streptomycin). Human ovarian adenocarcinoma cell lines UT-OC-1, UT-OC-2, UT-OC-3, UT-OC-4, UT-OC-5 (Grenman, S., Engblom, P., Rantanen, V., Klemi, P. and Isola, J., “Cytogenetic Characterization of Five New Ovarian Carcinoma Cell Lines,” Acta Obstet. Gynecol. Scand., 76:83 (1997)) and SK-OV-3 and a human keratinocyte cell line HaCaT were grown in DMEM (Sigma Aldrich) with 10% FBS and antibiotics (100 IU/ml penicillin, 100 μg/ml streptomycin), and monkey kidney COS cells were maintained in DMEM/F12 (Sigma Aldrich) with 5% FBS. All cell lines were kept at 37° C. in a humidified 95% air/5% CO2 incubator.
When OVCAR-3 cells were on the logarithmic growth phase (70% confluent) the growth assay was started. For cell growth assay, 2,000 cell/200 μl/well were plated on 96-well culture plates. […] Ethanol was used as a vehicle, and it was also included in the control. The medium containing ethanol vehicle and/or hormones were changed to a fresh one every third day. Cell growth samples were taken 0, 1, 3, 5, 7, 9 and 11 days after the treatment.
Relative cell numbers were quantified as described previously (Kueng W, Silber E, Eppenberger U. Quantification of cells cultured on 96-well plates. Anal. Biochem., 182:16-9 (1989)). Cells were fixed on the bottom of the wells by addition of 10 μl of 11% glutaraldehyde solution in 0.1% phosphate buffer to 100 μl of medium. The plate was shaken 500 cycles/min for 15 min, washed 3 times by submersion in de-ionised water and air-dried. Fixed cells were stained with 0.1% solution of crystal violet dissolved in de-ionised water. After 20 min incubation, excess dye was removed by carefully washing with de-ionised water. The plate was air-dried prior to a bound dye solubilisation in 100 μl of 10% acetic acid. Relative cell number was given as absorbance units by measuring the optical density (590 nm) from each well using Victor 1420 multilabel counter (Wallac, Turku, Finland). Six determinations were used to calculate the mean optical density ±SD in each concentration at each time point. The absorbance value of day 0 (an overnight culture of 2,000 cells/well) was set as 0 by subtracting it from each value obtained from adjacent time-point measurements (days 1-11), and based on these values growth curves were created. Experiments were repeated 3-5 times. Day 11 was used to compare the effect of hormone treatments and 24OHase inhibitor. Statistical analyses were done using Student's t-test.
The cell growth response was determined as described in Experiment I. Briefly, cells were treated with indicated hormone concentrations or combinations of hormone and 24OHase inhibitor (VID400) for 11 days. The growth medium and hormones were changed to a fresh one every third day. After the treatment period, cells were fixed, stained with crystal violet, and the optical density (590 nm) was determined. The cell growth is presented as a percentage of ethanol-treated cells. The values represent the mean of 3 separate experiments ±SD. (*p<0.05, **p<0.001, ***p<0.0001, Student's t-test).
Cell growth samples were obtained after 11 days treatment.

[1] = tested on: 24OHase mRNA in OVCAR-3 cells; experiment: Quantitative RT-PCR of 24OHase mRNA; type: cell-based, human; settings: 100 nM
Procedure: Ethanol was used as a vehicle, and it was also added to the control cells. For RNA extraction, the cells were collected 4, 6 and 24 hr after the treatment with vitamin D compound or vehicle. RNA extractions were done with TRIZOL reagent (GIBCO Invitrogen Corporation, Paisley, UK). The integrity of RNA samples was confirmed on gel electrophoresis. […] The reactions for 24-hydroxylase were performed in the LightCycler instrument (Roche Diagnostics, Basel, Switzerland) from 300 ng total RNA. PBGD (human porphobilinogendeaminase) mRNA was used as an […] control. […] Nucleotides, Tth DNA polymerase (DNA polymerase and reverse transcriptase activity), SYBR Green I and reaction buffer were included in the LightCycler-RNA Master SYBR Green I kit (Roche Diagnostics). […] Cell. […] Detection of fluorescent product was performed at the end of the extension step of each cycle. To verify the specific products, melting curve analysis and gel electrophoresis were done. The data were quantified by the Fit Points method with LightCycler Data Analysis software. […] Hormone treatments and RT-PCR were done twice.

[2] = tested on: ovarian cancer cell lines; experiment: Cell growth assay, crystal violet, 11 days, all cell lines; type: cell-based, human; settings: 200 nM VID 400 alone
Procedure: The human ovarian adenocarcinoma cell line, OVCAR-3 (ATCC, Manassas, Va.) was maintained, as recommended by the supplier, in RPMI 1640 medium (Sigma Aldrich, St. Louis, Mo.) supplemented with 10% FBS, 10 μg/ml insulin, 0.25% glucose and antibiotics (100 IU/ml penicillin, 100 μg/ml streptomycin). Human ovarian adenocarcinoma cell lines UT-OC-1, UT-OC-2, UT-OC-3, UT-OC-4, UT-OC-5 (Grenman, S., Engblom, P., Rantanen, V., Klemi, P. and Isola, J., “Cytogenetic Characterization of Five New Ovarian Carcinoma Cell Lines,” Acta Obstet. Gynecol. Scand., 76:83 (1997)) and SK-OV-3 and a human keratinocyte cell line HaCaT were grown in DMEM (Sigma Aldrich) with 10% FBS and antibiotics (100 IU/ml penicillin, 100 μg/ml streptomycin), and monkey kidney COS cells were maintained in DMEM/F12 (Sigma Aldrich) with 5% FBS. […]
Relative cell numbers were quantified as described previously (Kueng W, Silber E, Eppenberger U. Quantification of cells cultured on 96-well plates. Anal. Biochem., 182:16-9 (1989)). […] Relative cell number was given as absorbance units by measuring the optical density (590 nm) from each well using Victor 1420 multilabel counter (Wallac, Turku, Finland). […] The absorbance value of day 0 (an overnight culture of 2,000 cells/well) was set as 0 by subtracting it from each value obtained from adjacent time-point measurements (days 1-11), and based on these values growth curves were created. […]

24-hydroxylase = biological target: T1, 24-hydroxylase (Homo sapiens, UniProt Q07973); settings: Schuster et al., J. Cell. Biochem. 88:372-380 (2003); cited from earlier work
T1 sequence (Q07973 36-514): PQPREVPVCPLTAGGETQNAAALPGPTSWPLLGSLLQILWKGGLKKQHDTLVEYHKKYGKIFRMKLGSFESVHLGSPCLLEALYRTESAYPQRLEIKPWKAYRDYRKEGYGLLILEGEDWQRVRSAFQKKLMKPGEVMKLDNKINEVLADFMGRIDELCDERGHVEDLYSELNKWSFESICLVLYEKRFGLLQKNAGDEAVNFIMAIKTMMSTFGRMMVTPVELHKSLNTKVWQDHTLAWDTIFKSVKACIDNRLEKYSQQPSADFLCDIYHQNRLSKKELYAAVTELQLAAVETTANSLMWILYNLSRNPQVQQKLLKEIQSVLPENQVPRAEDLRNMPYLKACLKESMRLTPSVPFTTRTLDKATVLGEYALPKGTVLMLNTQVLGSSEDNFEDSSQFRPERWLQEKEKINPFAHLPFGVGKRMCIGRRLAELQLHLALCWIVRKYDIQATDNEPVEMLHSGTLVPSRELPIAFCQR

[3] = tested on: OVCAR-3 ovarian cancer cells; experiment: Cell growth, methylene blue uptake (Experiment VI); type: cell-based, human; settings: 200 nM VID400 with calcitriol
Procedure: (§1) Culture conditions were the same as for Experiment I. Cell growth was measured using uptake of methylene blue (0.5% in 50% ethanol), followed by air drying and release of the dye in 1% sodium N-lauroyl sarcosine in PBS.

[4] = tested on: DU145 prostate cancer cells; experiment: Cell growth, methylene blue uptake (Experiment VI); type: cell-based; settings: VID400+calcitriol
Procedure: as §1

[5] = tested on: CWR22Rv-1 prostate cancer cells; experiment: Cell growth, methylene blue uptake (Experiment VI); type: cell-based; settings: VID400+calcitriol
Procedure: as §1

[6] = tested on: PC3 prostate cancer cells; experiment: Cell growth, methylene blue uptake (Experiment VI); type: cell-based; settings: VID400+calcitriol
Procedure: as §1

C=C1CC[C@H](O)C/C1=C/C=C1\CCC[C@]2(C)[C@@H]([C@H](C)CCCC(C)(C)O)CC[C@@H]12 [25(OH)D3, monohydroxyvitamin D3]
stimulated growth compared to the control (OVCAR-3 cells; 10 nM, 11 days): 32% | stimulated growth compared to the control (OVCAR-3 cells; 50 nM, 11 days): 41% | stimulated growth compared to the control (OVCAR-3 cells; 100 nM alone, 11 days, Experiment IV, not statistically significant): 18% | stimulated growth compared to the control (OVCAR-3 cells; 100 nM, 11 days, Experiment I): 39% | stimulated growth compared to the control (OVCAR-3 cells; 200 nM, 11 days): 35% | stimulated growth compared to the control (OVCAR-3 cells; 500 nM, 11 days): 11% | induction of 24OHase mRNA expression ([1]; 6 hr treatment): 3 fold | induction of 24OHase mRNA expression ([1]; 24 hr treatment): 0.5 fold

O=C(NC[C@@H](c1ccccc1)n1ccnc1)c1ccc(-c2ccc(Cl)cc2)cc1 [VID400, 2-(R)-4′-Chlorobiphenyl-4-carboxylic acid (2-imidazol-1-yl-2-phenyl-ethyl)-amide]
effect on cell growth [2]: varied from slight stimulation to growth inhibition | growth inhibition compared to the control (OVCAR-3 cells; 200 nM VID400 alone, 11 days, Experiment IV): 8% | growth inhibition compared to the control (OVCAR-3 cells; 200 nM VID400 combined with 1 nM 1,25(OH)2D3, 11 days): 27% | growth inhibition compared to the control (OVCAR-3 cells; 200 nM VID400 combined with 10 nM 1,25(OH)2D3, 11 days): 77% | effect on growth inhibition (OVCAR-3 cells; 200 nM VID 400 combined with 10 nM 1,25(OH)2D3, 11 days): clearly enhanced the growth inhibition | growth inhibition compared to the control (OVCAR-3 cells; 200 nM VID400 combined with 100 nM 25(OH)D3, 11 days): 14% | effect on growth inhibition (OVCAR-3 cells; 200 nM VID 400 combined with EB 1089, 11 days): had no additional effect on cell growth inhibition | effect on growth inhibition (OVCAR-3 cells; 200 nM VID 400 combined with retinoids, 11 days): slightly augmented the growth inhibition | inhibition of 24-hydroxylase (24-hydroxylase): potent inhibitors of 24-hydroxylase | effect on cell growth [3]: produced a further inhibition which was synergistic with calcitriol | effect on cell growth [4]: synergistic inhibition of growth | effect on cell growth [5]: synergistic inhibition of growth | effect on cell growth [6]: synergistic inhibition of growth
